According to patent publication US11382907B2, “Methods and compositions for treating aging-associated impairments using CCR3-inhibitors” (Alkahest, Inc., priority 2017, dated 2022):
Entries after “also recorded” stand apart in the source; their conditions may differ.

Legend:
[1] = Pharmacokinetic profile after P.O. dosing (plasma concentration); assay type: in vivo; conditions: mouse, 30 mg/kg oral gavage, male 2-month-old C57Bl/6 mice, for 8 hours, read-out: plasma concentration of Compound 1 maintained for 8 hours
Procedure: Compound levels were measured by MS/MS by Quintara (Hayward, Calif.).
Plasma from male 2-month-old C57Bl/6 mice was measured for concentrations of Compound 1 at time points of 20 minutes, 2 hours, 8 hours, and 12 hours after oral gavage at 2 doses: 30 mg/kg and 150 mg/kg.

[2] = system: two-month-old C57Bl/6 mice treated with rmCCL11; experiment: Y-maze test in young mice given recombinant mouse CCL11; assay type: in vivo; conditions: 2-month-old mice; rmCCL11 i.p.; Compound 1 30 mg/kg p.o. b.i.d.
Procedure: A large Y-maze test assesses short-term memory of the familiarity of a specific context. Mice are brought to the experimental room for at least 30 min of acclimation to the experimental room conditions (dim lighting) prior to testing. For the initial training trial, the mouse is placed at the end of one arm of a large Y-maze designated “start arm” (arm length: 15 inches). The third arm of the maze is blocked off, allowing the mouse to explore two of the three arms freely (“start arm” and “familiar arm”) for 5 min. Each arm contains spatial cues. One hour later, the mouse is placed back into the maze in the “start arm” and allowed to explore all three arms with the third arm unblocked (“novel arm”). Movements in and out of each arm are tracked using automated tracking software (CleverSys). Testing is performed under dim lighting, and the apparatus is cleaned with 70% ethanol between trials.
Two-month-old C57Bl/6 mice were dosed with either vehicle control or Compound 1 by oral gavage twice daily for 18 days. During the last week of treatment, mice were subjected to behavior testing prior to perfusion on the last day of treatment. All mice received 5 consecutive days of BrdU injection at 150 mg/kg IP immediately prior to treatment start. […]

[3] = system: twenty-four-month-old C57 mice; experiment: T maze test in aged mice; assay type: in vivo; conditions: 4 weeks continuous infusion by osmotic pump
Procedure: The Water Maze was filled with water at least 24 hours prior to the test to allow it to reach room temperature. The water was dyed with white latex paint to make the animals visible for tracking and to allow for the use of a hidden platform. Two distinct visual cues were placed at the end of both T-arms of the T-Maze insert. On day 1 animals were given 4 trials each with a visible platform and a 30 min inter-trial interval. Animals were given 60 seconds to reach the platform. […] The goal arm was switched after every third mouse and both treatment groups had equal numbers of right and left turn goal arms. After each trial the mice were placed in an empty cage with blue pads and allowed to dry off under a red light lamp before being placed back into their home cage. Day 2 is the testing day, where animals are subjected to the same test of 4 trials each and a 30 min inter trial interval, but with a hidden platform. Animals were scored for right or wrong choice and for latency to reach the platform, and a binomial test was conducted to compare success rates between control and compound-treated mice. All trials were recorded using TopScan.
Twenty-four-month-old C57 mice were treated for 4 weeks with continuous infusion of Compound 1 or vehicle by Alzet osmotic pump, which were implanted to continuously deliver the two treatments. […]

GFAP-positive astroglia = experiment: IHC of GFAP-positive astroglia in hippocampus of mice given daily LPS; assay type: in vivo, C57Bl/6 mice; conditions: 3-month-old mice, daily LPS IP 7 weeks, 30 mg/kg PO BID 4 weeks
Procedure: For fluorescent microscopy, the following antibodies were used in the given concentrations: GFAP, 1:500, DAKO; Iba1, 1:1000, Wako; and BrdU, 1:500, AbCam. Antigen retrieval protocol was required for BrdU (2N HCl, 37 C, 30 min) prior to blocking. The appropriate fluorescent secondary antibodies were applied the next day at a concentration of 1:300 for one hour at room temperature. Prolong Gold Mounting Media was used to coverslip the slides. Images were acquired on a light microscope at 5× magnification.
Three-month-old C57 mice were given daily doses of lipopolysaccharide (LPS) 0.5 mg/kg IP to induce inflammation and treated with Compound 1 for up to 4 weeks.
Treatment Groups: • Treatment Group 1, Vehicle treatment: 3-month-old C57 mice (n=10) received daily IP injection of LPS for 7 weeks and twice daily (BID) oral gavage (PO) treatment of vehicle solution for up to 4 weeks. • Treatment Group 2, Vehicle treatment and Oxazolone treatment: 3-month-old C57 mice (n=10) received daily IP injection of LPS for 7 weeks and twice daily (BID) oral gavage (PO) treatment of vehicle solution for up to 4 weeks. • Treatment Group 3, Compound 1 treatment and Oxazolone treatment: 3-month-old C57 mice (n=9) received daily IP injection of LPS for 7 weeks and twice daily (BID) oral gavage (PO) treatment of Compound 1, 30 mg/kg, for up to 4 weeks.

concentration at 8 hours [1]: > 100 nM
Compound: Cc1cc(C(=O)N(C)C)cc(NC(=O)[C@H]2CCC(=O)N2C2CCN(Cc3ccc(Cl)c(C)c3)CC2)n1 [Compound 1]
memory in the Y-maze [2]: no longer significantly different from control mice
T maze success versus vehicle (binomial test) [3]: succeeded more than vehicle-treated mice
GFAP+ immunoreactivity (total astrocytes) in hippocampus (GFAP-positive astroglia): dramatically decreased GFAP+ immunoreactivity; also recorded: trend towards decrease
